In general, Ki refers to a dissociation constant, usually derived from enzyme kinetics or from competition with a known ligand. A higher Ki goes with a looser hold on the target.

In BindingDB's records for patent US9828374 (Hoffmann-La Roche, 2017) one finds Ki data, which are given here for four compounds.

In the experiment the target is Trace amine-associated receptor 1 (Mus musculus, UniProt Q923Y8). In words: Radioligand Binding Assay. As for the experimental part:
Nonspecific binding was defined as the amount of [H]-(S)-4-[(ethyl-phenyl-amino)-methyl]-4,5-dihydro-oxazol-2-ylamine bound in the presence of 10 μM unlabeled ligand. All compounds were tested at a broad range of concentrations ([…]) in duplicates.

Sequence of Trace amine-associated receptor 1 (Q923Y8 whole entry): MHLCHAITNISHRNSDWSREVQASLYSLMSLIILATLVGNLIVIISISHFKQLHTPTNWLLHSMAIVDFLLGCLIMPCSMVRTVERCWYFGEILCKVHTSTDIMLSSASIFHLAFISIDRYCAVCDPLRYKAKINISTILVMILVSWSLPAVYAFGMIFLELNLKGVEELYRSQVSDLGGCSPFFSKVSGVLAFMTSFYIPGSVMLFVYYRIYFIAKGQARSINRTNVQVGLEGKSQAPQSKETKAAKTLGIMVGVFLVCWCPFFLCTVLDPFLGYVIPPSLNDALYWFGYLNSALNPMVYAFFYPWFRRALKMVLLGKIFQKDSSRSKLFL

As for `Fc1c(Nc2cc(Cl)nc(C(F)(F)F)n2)ccc2c1CCN1CCNC[C@@H]21` [US9828374, Example 34], the Ki is 79.5 nM.
On to `Cc1cc(Nc2ccc3c(c2)CCN2CCNC[C@@H]32)nc(OCC(F)(F)F)n1` [US9828374, Example 26], for which the affinity corresponds to a Ki of 41 nM. Compared with the last compound, the Ki is about 1.9-fold lower.
As for `Brc1ccc2c(c1)CCN1CCNC[C@@H]21` [US9828374, Example 2], the figure is 180 nM; as for `O=C(Nc1ccc2c(c1)CCN1CCNC[C@@H]21)c1cnc(C(F)(F)F)nc1` [US9828374, Example 4], 189 nM.
